Tests used:
[1] = 101 kPa, Liquid
[2] = refractive index (Na D-line) (dimensionless); settings: 101.33 kPa, Liquid
[3] = xn = mol fraction of the nth substance listed; settings: 101 kPa, Liquid
[4] = refractive index (Na D-line) (dimensionless); xn = mol fraction of the nth substance listed; settings: 101 kPa, Liquid

CC(C)CCO [3-methylbutan-1-ol]
Settings	mass density, 298.15 K [kg/m3]	mass density, 303.15 K [kg/m3]	mass density, 308.15 K [kg/m3]	refractive index, 298.15 K	refractive index, 303.15 K	speed of sound, 298.15 K [m/s]	viscosity, 298.15 K [mPa·s]	viscosity, 303.15 K [mPa·s]
[1]	807.2	803.45	791.86	–	–	1241	3.835	3.261
[2]	–	–	–	1.405	1.403	–	–	–

COc1ccccc1 [anisole]
Settings	mass density, 298.15 K [kg/m3]	mass density, 303.15 K [kg/m3]	mass density, 308.15 K [kg/m3]	refractive index, 298.15 K	refractive index, 303.15 K	refractive index, 308.15 K	speed of sound, 298.15 K [m/s]	viscosity, 298.15 K [mPa·s]	viscosity, 303.15 K [mPa·s]	viscosity, 308.15 K [mPa·s]
[1]	989.15	984.45	979.73	–	–	–	1412	0.988	0.913	0.854
[2]	–	–	–	1.5137	1.5113	1.5088	–	–	–	–

COc1ccccc1 [anisole] + CCCO
Settings	mass density, 298.15 K [kg/m3]	mass density, 303.15 K [kg/m3]	mass density, 308.15 K [kg/m3]	refractive index, 298.15 K	refractive index, 303.15 K	refractive index, 308.15 K	speed of sound, 298.15 K [m/s]	viscosity, 298.15 K [mPa·s]	viscosity, 303.15 K [mPa·s]	viscosity, 308.15 K [mPa·s]
[3], x1 = 0.1036	816.88	812.68	808.48	–	–	–	1223	1.564	1.392	1.242
[3], x1 = 0.2003	835.8	831.49	827.18	–	–	–	1232	1.352	1.198	1.078
[3], x1 = 0.3055	856.97	852.54	848.11	–	–	–	1258	1.166	1.094	0.961
[3], x1 = 0.4053	876.55	872.04	867.53	–	–	–	1278	1.069	0.98	0.879
[3], x1 = 0.5096	897.74	893.14	888.55	–	–	–	1297	1.003	0.921	0.838
[3], x1 = 0.6015	915.39	910.74	906.1	–	–	–	1314	0.989	0.903	0.821
[3], x1 = 0.7071	934.31	929.62	924.94	–	–	–	1330	0.947	0.859	0.802
[3], x1 = 0.8023	952.23	947.51	942.78	–	–	–	1350	0.943	0.861	0.795
[3], x1 = 0.8939	970.23	965.5	960.74	–	–	–	1370	0.932	0.869	0.792
[3], x1 = 1	989.15	984.45	979.73	–	–	–	1412	0.988	0.913	0.854
[4], x1 = 0.1036	–	–	–	1.4013	1.3989	1.3966	–	–	–	–
[4], x1 = 0.2003	–	–	–	1.4176	1.4153	1.4129	–	–	–	–
[4], x1 = 0.3055	–	–	–	1.4284	1.4314	1.4287	–	–	–	–
[4], x1 = 0.4053	–	–	–	1.4459	1.4458	1.4426	–	–	–	–
[4], x1 = 0.5096	–	–	–	1.461	1.4578	1.4542	–	–	–	–
[4], x1 = 0.6015	–	–	–	1.4737	1.4704	1.4673	–	–	–	–
[4], x1 = 0.7071	–	–	–	1.4864	1.482	1.4793	–	–	–	–
[4], x1 = 0.8023	–	–	–	1.4955	1.493	1.4897	–	–	–	–
[4], x1 = 0.8939	–	–	–	1.5046	1.5014	1.499	–	–	–	–
[4], x1 = 1	–	–	–	1.5137	1.5113	1.5088	–	–	–	–

COc1ccccc1 [anisole] + CCO
Settings	mass density, 298.15 K [kg/m3]	mass density, 303.15 K [kg/m3]	mass density, 308.15 K [kg/m3]	refractive index, 298.15 K	refractive index, 303.15 K	refractive index, 308.15 K	speed of sound, 298.15 K [m/s]	viscosity, 298.15 K [mPa·s]	viscosity, 303.15 K [mPa·s]	viscosity, 308.15 K [mPa·s]
[3], x1 = 0.0998	822.6	818.11	813.62	–	–	–	1178	0.995	0.908	0.831
[3], x1 = 0.1985	852.71	848.12	843.52	–	–	–	1226	0.934	0.851	0.777
[3], x1 = 0.2976	878.53	873.84	869.14	–	–	–	1277	0.91	0.829	0.768
[3], x1 = 0.3973	900.47	895.73	890.99	–	–	–	1290	0.881	0.813	0.747
[3], x1 = 0.5008	920.46	915.68	910.89	–	–	–	1301	0.882	0.807	0.749
[3], x1 = 0.5968	936.53	931.73	926.92	–	–	–	1314	0.849	0.784	0.727
[3], x1 = 0.7015	952.42	947.62	942.81	–	–	–	1326	0.894	0.832	0.774
[3], x1 = 0.7935	964.6	960.01	955.42	–	–	–	1340	0.897	0.83	0.772
[3], x1 = 0.9014	977.99	973.42	968.84	–	–	–	1355	0.923	0.858	0.792
[3], x1 = 1	989.15	984.45	979.73	–	–	–	1412	0.988	0.913	0.854
[4], x1 = 0.0998	–	–	–	1.3856	1.3838	1.3814	–	–	–	–
[4], x1 = 0.1985	–	–	–	1.4085	1.4066	1.4039	–	–	–	–
[4], x1 = 0.2976	–	–	–	1.4284	1.4261	1.4241	–	–	–	–
[4], x1 = 0.3973	–	–	–	1.4459	1.4428	1.4402	–	–	–	–
[4], x1 = 0.5008	–	–	–	1.461	1.4586	1.4567	–	–	–	–
[4], x1 = 0.5968	–	–	–	1.4737	1.4711	1.4695	–	–	–	–
[4], x1 = 0.7015	–	–	–	1.4864	1.4842	1.4816	–	–	–	–
[4], x1 = 0.7935	–	–	–	1.4955	1.4934	1.4907	–	–	–	–
[4], x1 = 0.9014	–	–	–	1.5046	1.5031	1.5008	–	–	–	–
[4], x1 = 1	–	–	–	1.5137	1.5113	1.5088	–	–	–	–

CCCCO [butan-1-ol]
Settings	mass density, 298.15 K [kg/m3]	mass density, 303.15 K [kg/m3]	mass density, 308.15 K [kg/m3]	refractive index, 298.15 K	refractive index, 303.15 K	refractive index, 308.15 K	speed of sound, 298.15 K [m/s]	viscosity, 298.15 K [mPa·s]	viscosity, 303.15 K [mPa·s]	viscosity, 308.15 K [mPa·s]
[1]	806.12	802.28	798.41	–	–	–	1246	2.585	2.284	1.981
[2]	–	–	–	1.3968	1.3944	1.3923	–	–	–	–

CCCCO [butan-1-ol] + COc1ccccc1
x2 = 0
Settings	mass density, 298.15 K [kg/m3]	mass density, 303.15 K [kg/m3]	mass density, 308.15 K [kg/m3]	refractive index, 298.15 K	refractive index, 303.15 K	refractive index, 308.15 K	speed of sound, 298.15 K [m/s]	viscosity, 298.15 K [mPa·s]	viscosity, 303.15 K [mPa·s]	viscosity, 308.15 K [mPa·s]
[3]	806.12	802.28	798.41	–	–	–	1246	2.585	2.284	1.981
[4]	–	–	–	1.3968	1.3944	1.3923	–	–	–	–

CCO [ethanol]
Settings	mass density, 298.15 K [kg/m3]	mass density, 303.15 K [kg/m3]	mass density, 308.15 K [kg/m3]	refractive index, 298.15 K	refractive index, 303.15 K	refractive index, 308.15 K	speed of sound, 298.15 K [m/s]	viscosity, 298.15 K [mPa·s]	viscosity, 303.15 K [mPa·s]	viscosity, 308.15 K [mPa·s]
[1]	785.91	781.6	777.26	–	–	–	1161	1.073	0.971	0.889
[2]	–	–	–	1.3591	1.3572	1.355	–	–	–	–

CCO [ethanol] + COc1ccccc1
x2 = 0
Settings	mass density, 298.15 K [kg/m3]	mass density, 303.15 K [kg/m3]	mass density, 308.15 K [kg/m3]	refractive index, 298.15 K	refractive index, 303.15 K	refractive index, 308.15 K	speed of sound, 298.15 K [m/s]	viscosity, 298.15 K [mPa·s]	viscosity, 303.15 K [mPa·s]	viscosity, 308.15 K [mPa·s]
[3]	785.91	781.6	777.26	–	–	–	1161	1.073	0.971	0.889
[4]	–	–	–	1.3591	1.3572	1.355	–	–	–	–

CCCCCO [pentan-1-ol]
Settings	mass density, 298.15 K [kg/m3]	mass density, 303.15 K [kg/m3]	mass density, 308.15 K [kg/m3]	refractive index, 298.15 K	refractive index, 303.15 K	refractive index, 308.15 K	speed of sound, 298.15 K [m/s]	viscosity, 298.15 K [mPa·s]	viscosity, 303.15 K [mPa·s]	viscosity, 308.15 K [mPa·s]
[1]	810.92	807.23	803.52	–	–	–	1286	3.403	2.959	2.581
[2]	–	–	–	1.4073	1.405	1.4032	–	–	–	–

CCCCCO [pentan-1-ol] + COc1ccccc1
x2 = 0
Settings	mass density, 298.15 K [kg/m3]	mass density, 303.15 K [kg/m3]	mass density, 308.15 K [kg/m3]	refractive index, 298.15 K	refractive index, 303.15 K	refractive index, 308.15 K	speed of sound, 298.15 K [m/s]	viscosity, 298.15 K [mPa·s]	viscosity, 303.15 K [mPa·s]	viscosity, 308.15 K [mPa·s]
[3]	810.92	807.23	803.52	–	–	–	1286	3.403	2.959	2.581
[4]	–	–	–	1.4073	1.405	1.4032	–	–	–	–

CCCO [propan-1-ol]
Settings	mass density, 298.15 K [kg/m3]	mass density, 303.15 K [kg/m3]	mass density, 308.15 K [kg/m3]	refractive index, 298.15 K	refractive index, 303.15 K	refractive index, 308.15 K	speed of sound, 298.15 K [m/s]	viscosity, 298.15 K [mPa·s]	viscosity, 303.15 K [mPa·s]	viscosity, 308.15 K [mPa·s]
[1]	799.96	795.93	791.86	–	–	–	1206	1.792	1.706	1.518
[2]	–	–	–	1.3826	1.3808	1.3782	–	–	–	–

CCCO [propan-1-ol] + COc1ccccc1
x2 = 0
Settings	mass density, 298.15 K [kg/m3]	mass density, 303.15 K [kg/m3]	mass density, 308.15 K [kg/m3]	refractive index, 298.15 K	refractive index, 303.15 K	refractive index, 308.15 K	speed of sound, 298.15 K [m/s]	viscosity, 298.15 K [mPa·s]	viscosity, 303.15 K [mPa·s]	viscosity, 308.15 K [mPa·s]
[3]	799.96	795.93	791.86	–	–	–	1206	1.792	1.706	1.518
[4]	–	–	–	1.3826	1.3808	1.3782	–	–	–	–

CC(C)O [propan-2-ol]
Settings	mass density, 298.15 K [kg/m3]	mass density, 303.15 K [kg/m3]	mass density, 308.15 K [kg/m3]	refractive index, 298.15 K	refractive index, 303.15 K	refractive index, 308.15 K	speed of sound, 298.15 K [m/s]	viscosity, 298.15 K [mPa·s]	viscosity, 303.15 K [mPa·s]	viscosity, 308.15 K [mPa·s]
[1]	781.36	777.09	772.75	–	–	–	1141	2.042	1.755	1.521
[2]	–	–	–	1.3745	1.3721	1.3702	–	–	–	–

CC(C)O [propan-2-ol] + COc1ccccc1
x2 = 0
Settings	mass density, 298.15 K [kg/m3]	mass density, 303.15 K [kg/m3]	mass density, 308.15 K [kg/m3]	refractive index, 298.15 K	refractive index, 303.15 K	refractive index, 308.15 K	speed of sound, 298.15 K [m/s]	viscosity, 298.15 K [mPa·s]	viscosity, 303.15 K [mPa·s]	viscosity, 308.15 K [mPa·s]
[3]	781.36	777.09	772.75	–	–	–	1141	2.042	1.755	1.521
[4]	–	–	–	1.3745	1.3721	1.3702	–	–	–	–
